The text below walks through data of ChEMBL document CHEMBL3507680, “University of Dundee, Gates Library screen for HepG2 cell viability”.

This series is described as follows: Human HepG2 cell viability assay in 384 well format. The format is toxicity, cell-based. Set-up: dose 125 nL, time 70.5 hour; cytotoxicity at 70.5 h: concentration not given beside the values. Particulars: HepG2 cells, read-out: Inhibition.

With `Cc1ccccc1CNC(C)c1ccc(OCC(=O)NC2CC2)cc1` (stereo not given), the cytotoxicity at 70.5 h turned out to be 13.8%.
As for `CC(Cc1ccccc1Cl)NC(=O)Nc1cnn(CC(N)=O)c1` (stereo not given), the figure is -2.99%.
As for `COc1ccc(COCC(O)CNC(=O)c2cc(C)no2)cc1` (stereo not given), the figure is -4.49%; as for `COc1ccc(COCC(O)CNC(=O)c2cc(C)oc2C)cc1` (stereo not given), 1.97%.
The figure for `Cc1ncccc1CNCC1CCN(CCO)CC1` is -0.718%; for `Cc1cnn(CC(C)NCc2ccc(OCc3cccnc3)cc2)c1` (stereo not given) it is 2.45%; for `Cc1cnn(CC(C)NCc2ccc(OCc3cscn3)cc2)c1` (stereo not given) it is -6.24%.
For `Cc1nnc2n1CCN(CCOc1ccc(C(C)(C)C)cc1)C2`, the cytotoxicity at 70.5 h was -4.66%.
The figure for `O=C(NC1CC1)C1CCN(c2snc3ccccc23)CC1` is 15.8%; for `CC1CCCN(C(=O)C2CCN(c3snc4ccccc34)CC2)C1` (stereo not given) it is 5.93%.
On to `CSCC(=O)N1CCCCC1Cn1cc(C)cn1` (stereo not given), for which the cytotoxicity at 70.5 h is -1.03%.
In the case of `Cc1cnn(CC2CCCN2C(=O)Cc2c(C)nc(C)[nH]c2=O)c1` (stereo not given), the cytotoxicity at 70.5 h is 15.2%.
The figure for `CCc1nc(C)ncc1C(=O)N1CCOC(c2nc(C)n[nH]2)C1` (stereo not given) is -0.337%; for `CCCc1n[nH]c(C2CN(CCNS(C)(=O)=O)CCO2)n1` (stereo not given) it is 25.5%; for `CCn1ccnc1CN1CCCN(C(=O)COC2CCCC2)CC1` it is 22.5%.
The figure for `Cc1cc(CN(Cc2cccs2)CC2CCCO2)on1` (stereo not given) is 20.8%; for `O=C(NCC(F)(F)F)C1CSCN1S(=O)(=O)c1ccccc1F` (stereo not given) it is 26%.
Regarding `CCN1CCC(CNC(=O)C2(c3ccc(F)cc3)CC2)C1` (stereo not given), the cytotoxicity at 70.5 h came out at 52%.
The figure for `CCCc1n[nH]c(C2CN(CCCS(=O)(=O)N(C)C)CCO2)n1` (stereo not given) is -4.5%.
As for `Cc1cnn(CC2CN(Cc3nccn3CC(F)(F)F)CCO2)c1` (stereo not given), the figure is 26.3%; as for `N#CC1CCN(C(=O)NCCc2ccc(Cl)s2)CC1`, -3.5%; as for `O=C(Cc1csc(-c2ccco2)n1)N1CCN(c2ccccc2O)CC1`, -4.66%.
Turning to `c1ccc(Cc2noc(CN(Cc3cccs3)CC3CCCO3)n2)cc1` (stereo not given), the cytotoxicity at 70.5 h is -4.54%.
The figure for `CC(=O)N1CCN(C(=O)NCc2ccc(Cl)s2)CC1` is 20.2%; for `Cc1ccc(S(=O)(=O)N2CSCC2C(=O)NCC(F)(F)F)cc1C` (stereo not given) it is -3.59%.
Consider `N#Cc1ccc(S(=O)(=O)N2CSCC2C(=O)NCC(F)(F)F)cc1` (stereo not given), for which the cytotoxicity at 70.5 h is -5.51%.
The figure for `O=C(Cc1csc(-c2ccco2)n1)N1CCN(c2nccs2)CC1` is -5.89%.
The figure for `Cc1ccoc1C(=O)NC1CCN(Cc2ccccc2F)CC1` is 27.3%; for `Cc1ncsc1C(=O)NC1CCN(Cc2cccc3c2OCCO3)CC1` it is -0.651%; for `Cc1ccoc1C(=O)NC1CCN(Cc2ccccc2C#N)CC1` it is -1.98%.
As for `Cc1ccc(NC2CCN(C(=O)c3ccc(F)cc3Cl)CC2)nn1`, the figure is -3.69%.
For the compound `O=C(O)c1cc(S(=O)(=O)Nc2ccccc2)cc2c1OCCO2`, the cytotoxicity at 70.5 h amounted to 4.5%.
With `Cc1ccc(NS(=O)(=O)c2cc3c(c(C(=O)O)c2)OCCO3)cc1F`, the cytotoxicity at 70.5 h was -3.64%.
In the case of `CCc1ccc(NS(=O)(=O)c2cc3c(c(C(=O)O)c2)OCCO3)cc1`, the cytotoxicity at 70.5 h was -0.0386%.
As for `CN(Cc1ccsc1)C(=O)Nc1ccc(S(C)(=O)=O)nc1`, the figure is 2.4%.
The figure for `COC(=O)c1ccc(S(=O)(=O)NCc2cccnc2N(C)C)cc1` is 29.6%; for `CCCOc1ccc(CNC(=O)N2CCC(C(N)=O)C2)cc1` (stereo not given) it is -0.602%; for `CC(C)N(CC(N)=O)Cc1csc(COc2ccc(F)cc2)n1` it is 43.4%.
As for `CS(=O)(=O)c1ccc(CNC(=O)N2CCC(C(N)=O)C2)cc1` (stereo not given), the figure is 30%.
As to `CCOc1ccnc(N2CCN(C(=O)c3cccnc3O)CC2)n1`, the cytotoxicity at 70.5 h amounted to 1.67%.
